A word on the inhibition: it is the drop in the measured response relative to a control, in per cent. Lower therefore signals a weak effect.

Data on two compounds can be found in patent US7521463B2, “Immunomodulatory compounds” (University of Maryland, Baltimore, priority 2000, dated 2009).

Data set [1] concerns OKT-3 activated Jurkat cells. Briefly: Jurkat cell activation-dependent phosphorylation (OKT-3, anti-phosphotyrosine western blot). Particulars: for effect on tyrosine phosphorylation of Jurkat cellular proteins, dose response: OKT-3, 0.1, 1, 10 and 100 μM; for effect on cellular tyrosine phosphorylation stimulated by OKT-3: compound 100 μM, 5 min at 37° C. The data set is classed as cell-based. The method, then:
Phosphorylation in Jurkat cells activated by the monoclonal antibody, OKT-3, is correlated with T-cell activation.
A. Compounds are tested for their effect on OKT-3 activated Jurkat cells. OKT-3 is a monoclonal antibody against CD3-ε chain. Treatment of Jurkat cells with OKT-3 antibody for 5 min at 37° C. activates Jurkat cells and induces tyrosine phosphorylation of several cellular proteins. […] Experiments are carried out to determine if compounds of the invention, or known compounds which can serve as standards, affect cellular tyrosine phosphorylation stimulated by OKT-3 in Jurkat cells.
The assay is performed as follows: Jurkat cells (1×10^6 cells) in RPMI 1640 supplemented with 10% fetal bovine serum (FBS) are treated with OKT-3 antibody (0.2 μg) and compounds (100 μM) for 5 min at 37° C. Cultures are immediately placed on ice after the incubation period, washed 3 times with cold PBS and lysed in 20 μl of SDS-sample buffer. Samples are briefly sonicated and boiled for 5 min and applied to SDS-PAGE (12% gel). After SDS-PAGE, proteins are blotted onto Immobilon P membrane (Millipore) for western blot analysis. Membranes are blocked overnight with 5% dried milk in TBST (Tris buffered saline containing 1% triton X-100). After washing, blots are incubated with monoclonal anti-phosphotyrosine antibody for 1 h in TBST followed by 1 hr incubation with horseradish peroxidase (HRP)-conjugated goat anti-mouse IgG. Blots are developed using enhanced chemiluminescence (ECL, Pierce).
The assay is performed as follows: Western blot analyses using anti-phosphotyrosine antibody are performed. Compounds (e.g., inventive compounds I′, II′ and III′) are added at concentrations of 0.1, 1, 10 and 100 μM. Cells are cultured as above.

Data set [2] has as its system Jurkat cells. Briefly: Effect on Jurkat cell viability / growth. The data set is classed as cell-based. Particulars: 10 μM. The method, then:
Compounds can be tested to determine whether they are cytotoxic or cytostatic. To test whether a compound which inhibits OKT-3-mediated stimulation of tyrosine phosphorylation has a cytotoxic effect on Jukat cells, its effect on the growth of Jurkat cells is tested.

For data set [3], the system named is IL-2 production in Jurkat cells. Briefly: Inhibition of IL-2 production in OKT-3 treated Jurkat cells (RIA). Type of data set: cell-based, human. Here is the method:
Interleukin 2 (IL-2) is an autocrine growth factor for T cells, the production of which requires T cell antigen receptor and co-receptor generated activation signals in normal T cells. The production of IL-2 is a hallmark of T cell activation signaling, leading to the clonal expansion of antigen-specific T cell clones. In Jurkat cells, treatment of cells with OKT-3 leads to the production of IL-2. […] For example, about 50% inhibition of IL-2 production is observed when cells are treated with 10 μM compound III′ at the time of OKT-3 treatment. […] Unlike the complete inhibition of OKT-3 induced tyrosine phosphorylation, the inhibition of IL-2 production by compound III′ is partial.
The assay is performed as follows: Jurkat cells (1×10^6 cells) are treated with OKT-3 antibody (0.2 μg) in the presence or absence of compounds (e.g., Compound III′) (0.1, 1 and 10 μM) for 24 h in RPMI 1640+10% FBS. At the end of the incubation period, culture media are harvested and assayed for human IL-2 by RIA. Cells treated with OKT-3 only and PMA+Ionomycin serves as a positive control. Untreated cells serve as a negative control. IL-2 production is not detected in untreated cells. Cells treated with 10 μM of Compound III′ are shown to inhibit IL-2 production by 44%. The standard deviation is 0.23 pg/ml.

For data set [4], the target named is p56^lck (Homo sapiens, UniProt P06239). In words: p56^lck kinase activity (general statement). The data set is classed as biochemical.

Entries after “also recorded” stand apart in the source; their conditions may differ.

Sequence of p56^lck (P06239 whole entry): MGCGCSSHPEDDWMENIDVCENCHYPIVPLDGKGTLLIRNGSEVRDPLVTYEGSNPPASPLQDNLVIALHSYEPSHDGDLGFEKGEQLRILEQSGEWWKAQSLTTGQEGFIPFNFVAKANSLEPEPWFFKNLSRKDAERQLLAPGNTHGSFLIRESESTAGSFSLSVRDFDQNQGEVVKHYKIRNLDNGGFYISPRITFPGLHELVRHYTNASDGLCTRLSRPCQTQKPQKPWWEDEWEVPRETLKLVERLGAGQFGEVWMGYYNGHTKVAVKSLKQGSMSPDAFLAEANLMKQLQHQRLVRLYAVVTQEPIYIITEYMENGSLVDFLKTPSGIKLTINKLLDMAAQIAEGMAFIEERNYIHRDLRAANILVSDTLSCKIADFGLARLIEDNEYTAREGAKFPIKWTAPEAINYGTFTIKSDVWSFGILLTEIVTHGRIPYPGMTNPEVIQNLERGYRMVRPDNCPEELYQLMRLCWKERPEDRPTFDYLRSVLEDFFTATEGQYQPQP

On to `O=C(Sc1ccccn1)c1ccc(Oc2ccc(Cl)cc2Cl)c([N+](=O)[O-])c1` [Compound III′], for which the “effect on tyrosine phosphorylation at the lowest concentration” value in data set [1] (OKT-3, 0.1 μM) was “inhibits tyrosine phosphorylation”. In addition, in data set [1], the “effect on tyrosine phosphorylation of Jurkat cellular proteins, dose response” value was “completely inhibits tyrosine phosphorylation of cellular proteins” and the “effect on cellular tyrosine phosphorylation stimulated by OKT-3” value is “inhibitory activity”. In data set [2], the “cytotoxic effect on Jurkat cells” value is “no cytotoxic effect is observed”, the “effect on the growth of Jurkat cells” value is “some cytostatic effect” and the “time after addition of compound at which Jurkat cells resume normal rate of growth” value came to 24 h. In data set [3] (Homo sapiens, Jurkat, 24 h, 10 μM, at the time of OKT-3 treatment), this compound registered an inhibition at 10 µM of about 50%. Also, the “effect on IL-2 production at lower concentrations” value in data set [3] (lower concentrations (0.1, 1 μM), OKT-3, 24 h) was “no observable effect”. In addition, in data set [4], the “effect on p56^lck kinase activity” value is on record as “inhibits p56^lck kinase activity”.

As to `CC(=O)OCc1cccc2cccc(Sc3ccccc3C(=O)O)c12` [Compound I′], in data set [1], the “effect on tyrosine phosphorylation of Jurkat cellular proteins, dose response” value is on record as “significantly stimulate tyrosine phosphorylation of Jurkat cellular proteins in a dose-dependent manner; also recorded: dose-dependent stimulation of tyrosine phosphorylation” and the “effect on cellular tyrosine phosphorylation stimulated by OKT-3” value is “stimulatory activity”. Besides, the “effect on p56^lck kinase activity” value in data set [4] is listed as “activates p56^lck kinase activity”.
